Calls of active or inactive are those of the source.
Columns and labels:
[1] = biological target: FAD-linked sulfhydryl oxidase ALR (Homo sapiens, UniProt P55789); test: ALR-catalysed DTT oxidation blockers – biochemical, H2O2 detection, luminescence, cherry-pick, dose response (AID 493248)
[2] = biological target: T1, Calpain-2 catalytic subunit (Sus scrofa, UniProt P43367); test: m-calpain protease blockers, concentration series – biochemical, fluorogenic peptide substrate, dose response (AID 1420); format: functional
T1 sequence (P43367 whole entry): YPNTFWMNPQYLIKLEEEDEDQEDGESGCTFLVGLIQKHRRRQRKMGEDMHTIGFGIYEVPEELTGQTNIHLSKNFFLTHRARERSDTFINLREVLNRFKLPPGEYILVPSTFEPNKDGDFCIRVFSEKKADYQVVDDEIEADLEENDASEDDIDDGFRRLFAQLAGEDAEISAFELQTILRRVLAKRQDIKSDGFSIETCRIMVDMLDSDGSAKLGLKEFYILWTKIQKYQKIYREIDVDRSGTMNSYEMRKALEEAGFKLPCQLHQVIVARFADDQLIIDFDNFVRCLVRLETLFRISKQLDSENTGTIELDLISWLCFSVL

[3] = biological target: T2, Replicative DNA helicase DnaB (Mycobacterium tuberculosis, UniProt P9WMR3); test: DnaB intein splicing inhibitors, dose response, biochemical, cell-free fluorescence (AID 449749); format: functional
T2 sequence (P9WMR3 whole entry): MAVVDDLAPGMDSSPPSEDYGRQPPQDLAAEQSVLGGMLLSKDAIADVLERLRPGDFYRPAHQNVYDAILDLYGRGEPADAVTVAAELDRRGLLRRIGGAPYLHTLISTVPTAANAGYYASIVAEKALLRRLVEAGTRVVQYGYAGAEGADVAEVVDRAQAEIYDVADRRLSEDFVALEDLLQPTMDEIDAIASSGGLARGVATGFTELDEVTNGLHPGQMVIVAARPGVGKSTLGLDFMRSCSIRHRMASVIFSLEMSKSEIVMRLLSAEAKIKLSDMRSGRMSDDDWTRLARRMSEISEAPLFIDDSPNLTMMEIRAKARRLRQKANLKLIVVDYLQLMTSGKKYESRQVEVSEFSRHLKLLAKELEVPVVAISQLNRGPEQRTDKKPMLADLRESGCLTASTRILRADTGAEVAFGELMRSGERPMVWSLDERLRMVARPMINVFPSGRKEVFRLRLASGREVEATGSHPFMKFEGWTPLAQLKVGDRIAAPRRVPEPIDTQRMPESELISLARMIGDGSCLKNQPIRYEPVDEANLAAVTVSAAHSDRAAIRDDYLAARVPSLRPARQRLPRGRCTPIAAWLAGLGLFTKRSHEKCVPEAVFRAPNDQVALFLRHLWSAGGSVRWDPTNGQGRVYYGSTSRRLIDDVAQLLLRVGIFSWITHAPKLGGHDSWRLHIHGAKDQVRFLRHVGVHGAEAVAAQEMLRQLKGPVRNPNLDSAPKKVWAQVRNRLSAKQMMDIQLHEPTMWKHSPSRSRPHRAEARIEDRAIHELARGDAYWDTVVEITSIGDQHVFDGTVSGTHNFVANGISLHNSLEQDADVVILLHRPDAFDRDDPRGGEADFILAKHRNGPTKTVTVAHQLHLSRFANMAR

[4] = biological target: T3, Protein RecA (Mycobacterium tuberculosis, UniProt P9WHJ3); test: Fluorescence Cell-Free Homogeneous Dose Retest to Identify Inhibitors of RecA-Intein Splicing Activity. [Related pubchem assays (depositor defined):AID2097, AID2223, AID489010, AID492950]; format: functional
T3 sequence (P9WHJ3 whole entry): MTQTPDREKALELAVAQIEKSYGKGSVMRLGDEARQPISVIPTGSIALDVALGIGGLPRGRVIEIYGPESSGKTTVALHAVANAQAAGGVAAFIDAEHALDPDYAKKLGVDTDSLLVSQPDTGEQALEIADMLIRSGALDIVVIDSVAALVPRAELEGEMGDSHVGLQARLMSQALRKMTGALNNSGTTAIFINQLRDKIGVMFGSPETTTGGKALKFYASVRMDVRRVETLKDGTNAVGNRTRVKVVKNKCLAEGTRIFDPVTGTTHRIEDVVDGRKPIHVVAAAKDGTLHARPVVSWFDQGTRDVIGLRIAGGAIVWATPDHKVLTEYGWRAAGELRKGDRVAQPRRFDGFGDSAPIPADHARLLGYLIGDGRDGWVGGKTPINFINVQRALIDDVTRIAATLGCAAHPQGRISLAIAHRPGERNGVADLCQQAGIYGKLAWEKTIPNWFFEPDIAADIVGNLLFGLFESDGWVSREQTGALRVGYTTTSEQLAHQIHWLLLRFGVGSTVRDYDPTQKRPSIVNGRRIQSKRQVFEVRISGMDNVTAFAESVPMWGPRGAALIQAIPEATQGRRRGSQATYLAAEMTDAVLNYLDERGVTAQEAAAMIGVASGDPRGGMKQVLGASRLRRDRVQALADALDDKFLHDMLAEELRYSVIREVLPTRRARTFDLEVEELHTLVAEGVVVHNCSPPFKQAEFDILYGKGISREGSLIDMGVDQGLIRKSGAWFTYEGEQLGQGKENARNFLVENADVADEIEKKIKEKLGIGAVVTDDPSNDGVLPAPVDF

[5] = biological target: T4, Heat shock factor protein 1 (Mus musculus, UniProt P38532); test: enhancement of HSF1-driven luciferase signal – cell-based, NIH3T3, luminescence, dose retest, confirmation (AID 435004); format: functional;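 also: stress induced by proteasome inhibitor MG132 added 30 min after compound; luciferase reporter driven by HSF1 response element in NIH3T3 cells; actives raise luminescence as potentiators of the MG132 stress response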
T4 sequence (P38532 whole entry): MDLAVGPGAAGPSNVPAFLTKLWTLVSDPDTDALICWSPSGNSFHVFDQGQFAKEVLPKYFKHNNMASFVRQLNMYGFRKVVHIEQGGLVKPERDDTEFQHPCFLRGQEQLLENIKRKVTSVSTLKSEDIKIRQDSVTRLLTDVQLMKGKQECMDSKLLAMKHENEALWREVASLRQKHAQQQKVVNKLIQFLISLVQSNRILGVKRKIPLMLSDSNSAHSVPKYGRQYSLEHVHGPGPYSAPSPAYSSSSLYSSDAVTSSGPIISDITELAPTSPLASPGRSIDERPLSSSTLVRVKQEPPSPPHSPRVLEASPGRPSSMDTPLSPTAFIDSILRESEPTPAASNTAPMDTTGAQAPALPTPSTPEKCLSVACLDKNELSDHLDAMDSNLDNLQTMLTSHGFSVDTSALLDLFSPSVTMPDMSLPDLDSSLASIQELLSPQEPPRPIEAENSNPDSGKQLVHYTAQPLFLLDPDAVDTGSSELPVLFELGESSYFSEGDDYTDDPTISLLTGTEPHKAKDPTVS

[6] = biological target: T5, Corticotropin-releasing factor receptor 2/Corticotropin-releasing factor-binding protein (Homo sapiens, UniProt P24387+Q13324); test: Dose Response confirmation of uHTS hits for small molecule antagonists of the CRF-binding protein and CRF-R2 receptor complex.; format: functional; conditions: read-out: IC50_Mean
T5 sequence (Q13324 whole entry): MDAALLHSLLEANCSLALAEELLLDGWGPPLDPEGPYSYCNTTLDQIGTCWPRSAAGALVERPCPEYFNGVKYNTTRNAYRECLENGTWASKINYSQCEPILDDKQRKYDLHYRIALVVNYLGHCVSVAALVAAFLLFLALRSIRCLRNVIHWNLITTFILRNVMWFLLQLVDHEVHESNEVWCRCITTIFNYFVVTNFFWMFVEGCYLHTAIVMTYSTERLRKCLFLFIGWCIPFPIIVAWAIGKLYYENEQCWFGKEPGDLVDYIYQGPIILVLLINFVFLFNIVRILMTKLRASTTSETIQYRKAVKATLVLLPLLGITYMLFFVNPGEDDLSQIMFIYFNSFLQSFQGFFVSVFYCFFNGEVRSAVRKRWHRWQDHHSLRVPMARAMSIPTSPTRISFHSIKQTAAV
T5 sequence (P24387 whole entry): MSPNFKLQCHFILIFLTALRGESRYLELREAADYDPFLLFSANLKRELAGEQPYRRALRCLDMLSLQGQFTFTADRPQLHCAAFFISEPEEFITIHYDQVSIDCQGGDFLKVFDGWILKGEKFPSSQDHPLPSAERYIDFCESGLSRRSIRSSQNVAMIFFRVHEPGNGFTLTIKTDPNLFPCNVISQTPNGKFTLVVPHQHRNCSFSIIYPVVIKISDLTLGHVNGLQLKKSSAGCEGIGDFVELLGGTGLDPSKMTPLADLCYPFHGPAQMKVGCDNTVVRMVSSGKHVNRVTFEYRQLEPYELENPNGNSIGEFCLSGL

[7] = biological target: T5, Corticotropin-releasing factor receptor 2/Corticotropin-releasing factor-binding protein; test: activators of CRF receptor 2 with binding protein – uHTS hits, confirmation (AID 602473); format: functional; conditions: read-out: EC50_Mean
[8] = system: H4; test: Luminescence Cell-Based Dose Response HTS to Identify Activators of 5'UTR Stem-Loop Driven Prion Protein mRNA Translation in H4 Neuroglioblastoma Cells. [Related pubchem assays: 1829 (Project Summary), 1814 (Primary HTS)]; format: functional; conditions: Homo sapiens
[9] = biological target: Paired box protein Pax-8 (Homo sapiens, UniProt Q06710); test: PAX8 transcriptional activity inhibition in RMG-I – RMG-I cells, luciferase, cherry-pick, dose response (AID 687027); format: functional, cell-based;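 also: luciferase reporter driven by Pax8 target thyroperoxidase promoter measured by SteadyGlo luminescence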
[10] = system: INS1; test: INS-1E survival protection against cytokine death – cell-based, luminescence, retest, dose response (AID 449756); format: functional; conditions: Rattus norvegicus;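 also: cell death triggered by IL-1 beta plus TNF-alpha plus IFN-gamma mixture; protective hits raise ATP signal compared with cytokine alone wells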
[11] = Luminescence Cell-Based Dose Retest to Confirm Inhibitors of Cancer Stem Cells. [Related pubchem assays (depositor defined):AID2717, AID2721]; format: functional; conditions: Homo sapiens
[12] = Luminescence Cell-Based Dose Confirmation HTS to Identify Inhibitors of Platelet Dense Granule Release. [Related pubchem assays: 1663 (Primary HTS), 1678 (Summary of Project)]; format: functional
[13] = biological target: Luciferin 4-monooxygenase (Photinus pyralis, UniProt P08659); test: inhibition of purified Photinus pyralis luciferase – biochemical, luminescence, dose response (AID 1891)
[14] = P. falciparum Dd2 growth inhibitors, dose response, SYBR Green, cherry-picked samples (AID 1159567); format: functional, cell-based

FAD-linked sulfhydryl oxidase ALR, sequence (P55789 whole entry): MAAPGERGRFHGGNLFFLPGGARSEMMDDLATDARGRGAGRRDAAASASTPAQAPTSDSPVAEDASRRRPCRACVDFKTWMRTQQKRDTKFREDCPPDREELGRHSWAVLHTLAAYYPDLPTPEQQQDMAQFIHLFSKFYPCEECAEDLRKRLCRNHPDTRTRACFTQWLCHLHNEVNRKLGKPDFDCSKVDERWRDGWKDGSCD
Paired box protein Pax-8, sequence (Q06710 whole entry): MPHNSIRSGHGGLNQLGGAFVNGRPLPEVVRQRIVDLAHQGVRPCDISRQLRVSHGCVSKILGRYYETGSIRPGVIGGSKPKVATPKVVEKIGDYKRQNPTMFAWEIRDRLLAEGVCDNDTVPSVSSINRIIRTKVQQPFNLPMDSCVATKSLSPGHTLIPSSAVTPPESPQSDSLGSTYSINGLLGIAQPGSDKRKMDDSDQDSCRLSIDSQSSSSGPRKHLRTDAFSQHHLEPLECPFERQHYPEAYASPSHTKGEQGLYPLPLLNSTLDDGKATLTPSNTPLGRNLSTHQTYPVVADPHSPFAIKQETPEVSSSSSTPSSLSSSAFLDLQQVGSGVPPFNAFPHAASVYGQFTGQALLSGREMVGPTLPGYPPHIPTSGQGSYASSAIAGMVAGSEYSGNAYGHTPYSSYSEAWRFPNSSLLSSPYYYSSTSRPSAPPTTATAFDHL
Luciferin 4-monooxygenase, sequence (P08659 whole entry): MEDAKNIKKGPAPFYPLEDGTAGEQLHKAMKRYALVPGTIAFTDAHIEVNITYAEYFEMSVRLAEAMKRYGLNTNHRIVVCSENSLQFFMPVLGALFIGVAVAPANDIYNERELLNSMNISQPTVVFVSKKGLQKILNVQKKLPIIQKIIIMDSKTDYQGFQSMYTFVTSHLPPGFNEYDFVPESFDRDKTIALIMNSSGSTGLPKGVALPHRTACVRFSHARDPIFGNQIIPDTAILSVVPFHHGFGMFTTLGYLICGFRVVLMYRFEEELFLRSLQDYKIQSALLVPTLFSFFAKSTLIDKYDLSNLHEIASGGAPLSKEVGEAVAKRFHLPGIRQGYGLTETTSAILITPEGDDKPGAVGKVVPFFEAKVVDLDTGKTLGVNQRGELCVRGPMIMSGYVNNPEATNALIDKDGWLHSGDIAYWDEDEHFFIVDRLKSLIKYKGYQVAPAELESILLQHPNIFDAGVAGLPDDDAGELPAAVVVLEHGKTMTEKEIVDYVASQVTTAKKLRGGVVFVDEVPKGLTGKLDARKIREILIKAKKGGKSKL

COc1ccc(Nc2c(-c3ccc(C)cc3)nc3cnccn23)cc1
AC50 [1]: 0.763 µM (active)
IC50 [2]: > 50 µM (not active)

COc1cccc(Nc2ccccc2C(=O)O)c1
AC50 [1]: 3.35 µM (active)

Cc1n[nH]c2c1C(c1ccoc1)C(C#N)=C(N)O2 (stereo not drawn)
AC50 [3]: 5.36 µM (active)
EC50 [4]: 2.25 µM (active)

O=[N+]([O-])c1cccc2c([As](=O)(O)O)cccc12
AC50 [3]: 16.4 µM (active)
EC50 [4]: 10.1 µM (active)

CN(C)c1ccc2nsnc2c1[N+](=O)[O-]
AC50 [3]: > 380 µM (inactive)
EC50 [4]: 8.64 µM (active)

NC(=O)NC(=O)C(Nc1ccc(N2CCCCC2)cc1)c1ccccc1 (stereo not drawn)
AC50 [1]: 0.797 µM (active)

Cc1n[nH]c2c1C(c1cc(Br)cs1)C(C#N)=C(N)O2 (stereo not drawn)
AC50 [3]: 12.7 µM (active)
EC50 [5]: 14.6 µM (active)
EC50 [4]: 6.13 µM (active)

COc1ccc(NC(=S)NCc2cccnc2)cc1
IC50 [6]: 9.74 µM (active)
EC50 [7]: > 53 µM (inactive)

COc1cccc(NC(=O)COC(=O)c2ccccc2C(=O)N2CCN(c3ccccc3)CC2)c1
IC50 [6]: > 47.1 µM (inactive)
EC50 [7]: > 53 µM (inactive)

O=C(O)c1cccc2c3c([nH]c12)CCCC3
AC50 [1]: 5.66 µM (active)

N#Cc1c(NC(=O)c2ccccc2)sc2c1CCC2
EC50 [8]: 12.6 µM (active)

O=C(Nc1nc(-c2cccs2)c(-c2cccs2)s1)C1(c2ccccc2)CC1
AC50 [9]: 51.1 µM (active)

O=C(c1c[nH]c2ccccc12)N1CCN(c2ccccc2)CC1
AC50 [1]: 4.16 µM (active)

CCc1ccc(S(=O)(=O)Nc2ccc(O)c3ccccc23)cc1
AC50 [10]: 8.73 µM (active)
AC50 [3]: 0.305 µM (active)
EC50 [4]: 0.0482 µM (active)
AC50 [11]: 5.13 µM (active)

C[C@@H]1CCCCO[C@H](CN(C)Cc2ccc(Cl)c(Cl)c2)[C@H](C)CN([C@@H](C)CO)C(=O)c2cc(NC(=O)Nc3ccccc3)ccc2O1
AC50 [9]: 8.42 µM (active)

COc1ccc(C(=O)Nc2ccccc2C(=O)N/N=C/c2cccc3ccccc23)cc1
EC50 [8]: > 120 µM (not active)
EC50 [12]: 1.15 µM (active)
EC50 [13]: 1.35 µM (active)

Cc1cccc(COc2ccc(/C=N/NC(=O)c3nnn(-c4nonc4N)c3COc3ccc(F)cc3)cc2)c1
EC50 [8]: 61.7 µM (active)

O=C(O)CCC(=O)NCCn1c(-c2ccccc2)cs/c1=N\c1ccccc1
AC50 [1]: 22.3 µM (active)
EC50 [5]: > 260 µM (inactive)

O=C(c1ccc(F)cc1)N1CC(=O)N2[C@H](CO)[C@H](c3ccc(C#Cc4ccc(F)cc4)cc3)[C@H]2C1
AC50 [14]: 4.05 µM (active)

N#C[C@@H]1[C@H](c2ccc(C#CC3CCCCC3)cc2)[C@H](CO)N1C(=O)Nc1ccc(F)cc1
AC50 [14]: 5.43 µM (active)

CC(C)NC(=O)N1[C@H](C#N)[C@H](c2ccc(-c3ccc(F)cc3)cc2)[C@@H]1CO
AC50 [14]: 4.17 µM (active)

C[C@H](CO)N1C[C@H](C)[C@H](CN(C)S(=O)(=O)c2ccccc2)Oc2ccc(NC(=O)Cc3cn(C)c4ccccc34)cc2C1=O
AC50 [14]: 3.2 µM (active)

CCCN(C)C[C@@H]1Oc2cc(C#CC3CCCC3)ccc2S(=O)(=O)N([C@@H](C)CO)C[C@@H]1C
AC50 [14]: 4.85 µM (active)

COc1cccc(NC(=O)N(C)C[C@H]2Oc3ncc(/C=C/c4ccccc4)cc3C(=O)N([C@@H](C)CO)C[C@@H]2C)c1
AC50 [14]: 6.14 µM (active)

Reference: ChEMBL document CHEMBL1201862, “PubChem BioAssay data set” (2004)
